Measured values reported in patent US20200113852A1, “METHODS OF PATIENT SELECTION AND TREATING TRXR- OR PRDX-OVEREXPRESSED CANCERS” (TRIACT THERAPEUTICS, INC., priority 2017, published 2020).

Experiments:
[1] = Phase II clinical trial GBM, toxicity and tolerability
HCT116 cells [2] = assay: Apoptosis and necrosis assay (DiOC2(3)/DAPI flow cytometry); assay type: cell-based, human
Procedure: (§1) Cells were seeded in 6-well tissue culture plates (2.5×10^5 cells/well). MDA-MB-453 and HCT116 cells were first pre-treated or not for 48 h with 1 mM BSO. […] Cell-conditioned culture media, that may contain detached cells, were then collected and attached cells were trypsinized. Cells were combined with their corresponding conditioned media and collected by centrifugation at 1500 rpm for 10 min at 4° C. […] Cell- and DNA-associated fluorescence signals were quantified using a FACS-Aria (BD Biosciences) and data were analyzed with the […] software (BD Biosciences).

MDA-MB-453 cells = assay: as above; assay type: cell-based, human; conditions: MDA-MB-453 without GSH depletion
Procedure: as §1

rat liver TrxR = rat liver TrxR (Rattus norvegicus, UniProt O89049); assay: Electron paramagnetic resonance, DEPMPO spin trapping; conditions: 100 μM Iniparib, NADPH, aerobic
Sequence of rat liver TrxR (O89049 whole entry): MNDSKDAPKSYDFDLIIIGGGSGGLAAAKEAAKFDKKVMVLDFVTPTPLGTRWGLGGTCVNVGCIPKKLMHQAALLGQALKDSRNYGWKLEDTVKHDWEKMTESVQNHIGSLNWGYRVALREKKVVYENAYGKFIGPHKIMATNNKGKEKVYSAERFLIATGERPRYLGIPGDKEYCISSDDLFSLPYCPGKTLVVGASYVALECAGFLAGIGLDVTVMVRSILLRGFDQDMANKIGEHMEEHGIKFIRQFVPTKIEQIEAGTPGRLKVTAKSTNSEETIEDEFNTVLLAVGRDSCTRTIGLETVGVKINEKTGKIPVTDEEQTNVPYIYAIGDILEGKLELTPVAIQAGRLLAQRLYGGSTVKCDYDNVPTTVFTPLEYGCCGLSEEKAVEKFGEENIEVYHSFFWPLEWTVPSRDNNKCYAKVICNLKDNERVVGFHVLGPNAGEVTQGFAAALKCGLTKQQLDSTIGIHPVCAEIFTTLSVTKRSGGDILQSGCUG
Procedure: Computer simulations of the spectra were performed using the program written by Rockenbauer and Korecz (25). […] Then the reaction mixture was transferred by aspiration into a gas permeable PTFE tubing (Extruded Sub-Lite-Wall®, inside diameter: 0.635 mm, wall thickness: 0.051 mm, Zeus Industrial Products Ltd., Ireland). The tubing was folded twice in a W-shape and inserted into a 4-mm EPR quartz tube for EPR analysis. […] To confirm the involvement of superoxide in the appearance of the EPR signal, 100 units of superoxide dismutase (SOD) were added to the incubation prior to TrxR addition. For anaerobic experiments, the reaction mixture was immediately transferred into the gas permeable tubing and nitrogen gas was flushed through a septum cap in the sealed EPR quartz tube during the whole experiment.

HCT116 cells [3] = assay: Fluorescence microscopy, subcellular localization of Iniparib-biotin targets; assay type: cell-based, human; conditions: HCT116, 30 min after adding Iniparib-biotin
Procedure: HCT116 cells were platted on polylysine D coated thin glass bottom microscope chambers (Ibidi). […] For subcellular localization experiments mitochondria were stained with 100 nM Mitotracker Red CMX (Molecular probes) added for 10 min. This stain was performed before fixation (Paraformaldehyde 3.7% in PBS pH 7.4). Biotin was developed, after Triton X100 (0.3% in PBS, 15 min) permeabilization and saturation (1% BSA+1% gelatin in PBS: saturation buffer), with Alexa-488 streptavidin (Molecular Probes) conjugate (1 μg/ml in saturation buffer). Nuclei were stained with Hoechst (Molecular Probes) and samples mounted in anti-fading solution (Ibidi).
Cells were imaged with a PLAN NeoFluar 40× (NA 1.3) or 100×, (NA 1.46) oil objectives on a LSM510 (Zeiss) confocal microscope. Laser lines, filters and dichroic mirrors were selected for maximal separation of the green (Ex./Em. 488/530 nm) and the red fluorescence (Ex./Em. 543/LP 585 nm). Nuclei were observed (Ex./Em. 405/460 nm). For co-localization stacks of images separated by 400 nm along z-axis were acquired. Post-capture processing was done using LSM510 software, and Photoshop (Adobe) was used to make linear adjustments to brightness and contrast.

[4] = tested on: cytosol and mitochondria of HCT116 cells; assay: Subcellular fractionation: Iniparib-biotin labeling of cytosol and mitochondria; assay type: cell-based, human
Procedure: Cells were homogenized in an ice-cold buffer containing 10 mM Tris-HCl, pH 7.5, protease and phosphatase inhibitors, and 250 mM sucrose in the case of mitochondria preparation, using a glass dounce tissue grinder (30 strokes). After centrifugation at 1,000×g for 5 min at 4° C., homogenates supernatants were collected. For cytosol preparation the 1000×g supernatants were submitted to differential centrifugation in Tris-HCl buffer: a first centrifugation was carried out at 22,000×g for 20 min and the resulting supernatants were further centrifuged at 100,000×g for 60 min. The final supernatants were referred to as the cytosolic fractions.
FIG. 11A and FIG. 11B show HCT116 cells were pre-treated or not for 48 h with 1 mM BSO. Thereafter Iniparib-biotin at 100 μM was added for 4 h. Cell homogenates were then processed for cytosol preparation (FIG. 11A) or mitochondria immuno-purification (FIG. 11B).
Cell homogenates were then processed for cytosol preparation or mitochondria immuno-purification. […]

In the case of `NC(=O)c1ccc(I)c([N+](=O)[O-])c1` [Iniparib, 4-iodo-3-nitrobenzamide], the Acute kidney injury ([1]; Grade 3) is reported as 1 (1) N (%), the Anemia ([1]; Grade 3) is reported as 2 (2) N (%) and the Atrial fibrillation ([1]; Grade 3) is reported as 1 (1) N (%). For the same compound, the Bronchial infection ([1]; Grade 3) was 1 (1) N (%), the Cognitive disturbance ([1]; Grade 3) was 1 (1) N (%) and the Confusion ([1]; Grade 3) was 1 (1) N (%). The Dehydration ([1]; Grade 3) was 1 (1) N (%), the Dizziness ([1]; Grade 3) was 1 (1) N (%) and the Dysphasia ([1]; Grade 3) was 1 (1) N (%). The Fatigue ([1]; Grade 3) was 4 (5) N (%), the Generalized muscle weakness ([1]; Grade 3) was 2 (2) N (%) and the Headache ([1]; Grade 3) was 1 (1) N (%). The Hyperkalemia ([1]; Grade 3) was 1 (1) N (%), the Hypokalemia ([1]; Grade 3) was 1 (1) N (%) and the Hypotension ([1]; Grade 3) was 1 (1) N (%). For the same compound, the Hypoxia ([1]; Grade 3) was 1 (1) N (%), the Lymphocyte count decreased ([1]; Grade 3) was 4 (5) N (%) and the Nausea ([1]; Grade 3) was 2 (2) N (%). The “Neutrophil Count Decreased” value ([1]; Grade 3) was 3 (4) N (%), the “Platelet Count Decreased” value ([1]; Grade 3) was 4 (5) N (%) and the Rash maculo-papular ([1]; Grade 3) was 3 (4) N (%). The “Skin and subcutaneous tissue disorders” value ([1]; Grade 3) was 1 (1) N (%), the Vomiting ([1]; Grade 3) was 1 (1) N (%) and the “White Blood Cell Decreased” value ([1]; Grade 3) was 5 (6) N (%). The Alanine aminotransferase increased ([1]; Grade 4) was 1 (1) N (%), the Aspartate aminotransferase increased ([1]; Grade 4) was 1 (1) N (%) and the Flushing ([1]; Grade 4) was 1 (1) N (%). For the same compound, the Hypertension ([1]; Grade 4) was 1 (1) N (%), the “Neutrophil Count Decreased” value ([1]; Grade 4) was 5 (6) N (%) and the “Platelet Count Decreased” value ([1]; Grade 4) was 11 (13) N (%). For the same compound, the “White Blood Cell Decreased” value ([1]; Grade 4) was 3 (4) N (%), the Acute kidney injury ([1]; Total) was 1 (1) N (%) and the Alanine aminotransferase increased ([1]; Total) was 1 (1) N (%). The Anemia ([1]; Total) was 2 (2) N (%), the Aspartate aminotransferase increased ([1]; Total) was 1 (1) N (%) and the Atrial fibrillation ([1]; Total) was 1 (1) N (%). The Bronchial infection ([1]; Total) was 1 (1) N (%), the Cognitive disturbance ([1]; Total) was 1 (1) N (%) and the Confusion ([1]; Total) was 1 (1) N (%). For the same compound, the Dehydration ([1]; Total) was 1 (1) N (%), the Dizziness ([1]; Total) was 1 (1) N (%) and the Dysphasia ([1]; Total) was 1 (1) N (%). For the same compound, the Fatigue ([1]; Total) was 4 (5) N (%), the Flushing ([1]; Total) was 1 (1) N (%) and the Generalized muscle weakness ([1]; Total) was 2 (2) N (%). For the same compound, the Headache ([1]; Total) was 1 (1) N (%), the Hyperkalemia ([1]; Total) was 1 (1) N (%) and the Hypertension ([1]; Total) was 1 (1) N (%). The Hypokalemia ([1]; Total) was 1 (1) N (%), the Hypotension ([1]; Total) was 1 (1) N (%) and the Hypoxia ([1]; Total) was 1 (1) N (%). For the same compound, the Lymphocyte count decreased ([1]; Total) was 4 (5) N (%), the Nausea ([1]; Total) was 2 (2) N (%) and the “Neutrophil Count Decreased” value ([1]; Total) was 8 (10) N (%). The “Platelet Count Decreased” value ([1]; Total) was 15 (18) N (%), the Rash maculo-papular ([1]; Total) was 3 (4) N (%) and the “Skin and subcutaneous tissue disorders” value ([1]; Total) was 1 (1) N (%). For the same compound, the Vomiting ([1]; Total) was 1 (1) N (%), the “White Blood Cell Decreased” value ([1]; Total) was 8 (10) N (%) and the well tolerated dose ([1]; with adjuvant TMZ) was 17.2 mg/kg weekly. The well tolerated dose ([1]; with radiation and TMZ) was 16 mg/kg weekly, the “treatment time from which apoptotic phenotype clearly detected” value (HCT116 cells [2]; GSH-depleted HCT116, 100 μM) was 6 h and the cell death phenotype (HCT116 cells [2]; GSH-depleted HCT116, 9 h, 100 μM) was “induced both necrotic and late apoptotic related phenotypes”. For the same compound, the apoptotic phenotype induction (MDA-MB-453 cells) was “much slower than in HCT116 cells”, the “DEPMPO/HOO• adduct signal” value (rat liver TrxR) was “five-fold” and the “DEPMPO/HO• adduct signal” value (rat liver TrxR) was “doubled”.

In the case of `O=C(CCCC[C@@H]1SC[C@@H]2NC(=O)N[C@@H]21)NCCNC(=O)c1ccc(I)c([N+](=O)[O-])c1` [Iniparib-biotin, 4-iodo-3-nitro-N-(2-(5-((3 aS,4S,6aR)-2-oxohexahydro-1H-thieno[3,4-d]imidazol-4-yl)pentanamido)ethyl)benzamide], the “subcellular localization of labeled proteins” value (HCT116 cells [3]) is reported as “cellular proteins were labeled in the cytosol as well as in the nucleus and cytoplasmic structures”, the “in vitro labeling of isolated cytosolic fraction” value ([4]; 30 μM Iniparib-biotin, with or without NADH/NADPH) is reported as “mainly when NADPH was added” and the “protein targets in isolated cytosol and mitochondria” value ([4]; fractions from Iniparib-biotin treated HCT116 cells) is reported as “present in both cell compartments”.
